# Columns and labels:
# H1 receptor = molecular target: T1, H1 receptor (Cavia porcellus, UniProt P31389); test: H1 receptor binding inhibition test ([^3 H]mepyramin, guinea pig cerebromembranous protein); details: for Kd: read-out: H1 receptor, dissociation constant KD; for inhibition at 100 µM: a: 100 μM
# T1 construct: guinea pig cerebromembranous protein; from tissue; host or cells: guinea pig cerebral (brain) membranes
# Experimental: 1) H1 Receptor Binding Inhibition Test
# An ice-cooled phosphate buffer was added to terminate the reaction, followed by immediate filtration through a Wattman CF/C filter. The filter was washed twice with 20 ml aliquots of the ice-cooled buffer. The radioactivity of the residue was measured by a liquid scintillation counter. From a measurement value obtained without the addition of the test compound and measurements values obtained upon addition of the test compound at various concentrations, the dose-response of the inhibitory action of the test compound was measured and the 50% inhibitory concentration (IC50) was determined. Using the Cheng-Prusoff formula, a dissociation constant was calculated from the IC50. In a binding assay, 10^-4 M R(-)dimethindene was used for the measurement of a nonspecific binding.
# LTD4 receptor = molecular target: T2, LTD4 receptor (Cavia porcellus, UniProt Q2NNR5); test: LTD4 receptor binding inhibition test ([^3 H]leukotriene D4, guinea pig pulmomembranous protein); details: for Kd: read-out: LTD4 receptor, dissociation constant KD; for inhibition at 10 µM: b: 10 μM; for inhibition at 10 µM / inhibition at 100 µM: read-out: LTD4 receptor (%), inhibition rate; for inhibition at 100 µM: a: 100 μM
# T2 construct: guinea pig pulmomembranous protein; from tissue; host or cells: guinea pig lung membranes
# T2 sequence (Q2NNR5 1-340): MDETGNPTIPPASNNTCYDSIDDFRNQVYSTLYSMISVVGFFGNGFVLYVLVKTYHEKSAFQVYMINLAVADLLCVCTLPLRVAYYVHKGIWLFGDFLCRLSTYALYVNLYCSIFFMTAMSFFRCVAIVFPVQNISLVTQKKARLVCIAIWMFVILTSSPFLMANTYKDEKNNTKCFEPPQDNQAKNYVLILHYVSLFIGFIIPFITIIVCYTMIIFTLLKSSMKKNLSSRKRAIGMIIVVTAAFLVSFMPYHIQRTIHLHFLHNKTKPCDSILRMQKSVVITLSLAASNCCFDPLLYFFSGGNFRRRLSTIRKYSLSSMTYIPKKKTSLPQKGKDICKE
# Experimental: 2) LTD4 Receptor Binding Inhibition Test
# An ice-cooled tris hydrochloride/sodium chloride buffer (10 mM/100 mM, pH 7.5) was added to terminate the reaction, followed by immediate filtration through a Wattman CF/C filter. The filter was washed twice with 20 ml aliguots of the ice-cooled buffer. The radioactivity of the residue was measured by a liquid scintillation counter. […] In a binding assay, 2 μM leukotriene D4 was used for the measurement of a nonspecific binding.
# [1] = read-out: H1 receptor (%), inhibition rate
# T1 sequence (P31389 whole entry): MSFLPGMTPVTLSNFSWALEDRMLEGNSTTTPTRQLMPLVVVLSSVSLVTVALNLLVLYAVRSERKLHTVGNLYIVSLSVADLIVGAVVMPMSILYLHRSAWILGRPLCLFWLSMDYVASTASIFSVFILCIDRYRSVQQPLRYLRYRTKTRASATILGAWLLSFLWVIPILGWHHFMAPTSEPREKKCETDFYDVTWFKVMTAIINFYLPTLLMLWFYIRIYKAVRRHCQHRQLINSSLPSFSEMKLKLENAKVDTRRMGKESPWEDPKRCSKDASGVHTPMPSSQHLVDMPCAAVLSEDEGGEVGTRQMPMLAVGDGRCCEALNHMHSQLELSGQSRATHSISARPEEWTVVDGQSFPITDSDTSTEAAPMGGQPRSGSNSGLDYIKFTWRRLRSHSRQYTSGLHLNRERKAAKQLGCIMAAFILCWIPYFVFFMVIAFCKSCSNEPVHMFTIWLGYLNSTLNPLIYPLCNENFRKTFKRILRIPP
structure (smiles),measurement,setting,value
"O=C1CCCc2cc(OCc3ccc(OCc4ccc5ccccc5n4)cc3)ccc2N1 [Example 25, 7-[4-(2-Quinolinylmethoxy)benzyloxy]-2,3,4,5-tetrahydro-1H-benzo[b]azepin-2-one]",Kd,H1 receptor,57.8 µM
same,Kd,LTD4 receptor,0.129 µM
"Cn1c(COc2cccc(COc3ccc4c(c3)SCC(=O)N4)c2)nc2ccccc21 [Example 36, 7-(3-(N-methylbenzimidazo1-2-yl-methoxy)benzyloxy]-3,4-dihydro-2H-1,4-benzothiazin-3-one]",Kd,H1 receptor,16.2 µM
same,Kd,LTD4 receptor,0.135 µM
"O=C1NCCCc2cc(OCc3ccc(OCc4ccc5ccccc5n4)cc3)ccc21 [Example 85, 7-[4-(2-quinolinylmethoxy)benzyloxy]-2,3,4,5-tetrahydro-1H-benz[c]azepin-1-one]",Kd,H1 receptor,53.1 µM
same,Kd,LTD4 receptor,0.115 µM
"CC1(C)C(=O)Nc2c(OC(=O)c3ccc(OCc4ccc5ccccc5n4)cc3)cccc21 [Example 69, 3,3-Dimethyl-7-(4-(2-quinolinylmethoxy)benzoyloxyy]-2,3-dihydro-1H-indol-2-one]",inhibition at 100 µM,H1 receptor; [1],33%
same,Kd,LTD4 receptor,0.331 µM
"Cc1ccc(OCc2cccc(OCc3ccc4ccccc4n3)c2)c2c1NC(=S)C2(C)C [Example 49, 4-[3-(2-quinolinylmethoxy)benzyloxy]-3,3,7-trimethyl-2,3-dihydro-1H-indol-2-thione]",Kd,LTD4 receptor,40 µM
"CCOCCn1c(COc2ccc(COc3ccc(C)c4c3C(C)(C)C(=O)N4)cc2)nc2ccccc21 [Example 45, 4-[4-(N-ethoxylethylbenzimidazol-2-yl-methoxy)benzyloxy]-3,3,7-trimethyl-2,3-dihydro-1H-indol-2-one]",inhibition at 100 µM,H1 receptor; [1],40%
same,inhibition at 10 µM,LTD4 receptor,32%
"O=C1CSc2cc(OCc3cccc(OCc4ccc5ccc(Cl)cc5n4)c3)ccc2N1 [Example 32, 7-[3-(7-chloro-2-quinolinylmethoxy)benzyloxy]-3,4-dihydro-2H-1,4-benzothiazin-3-one]",inhibition at 100 µM,H1 receptor; [1],43%
same,Kd,LTD4 receptor,0.109 µM
"O=C1CSc2cc(OCc3ccc(OCc4ccc5ccccc5n4)cc3)ccc2N1 [Example 26, 7-[4-(2-Quinolinylmethoxy)benzyloxy]-3,4-dihydro-2H-1,4-benzothiazin-3-one]",Kd,LTD4 receptor,546 µM
"O=C1CCc2ccc(OC(=O)c3cccc(OCc4ccc5ccccc5n4)c3)cc2N1 [Example 56, 7-[3-(2-Quinolinylmethoxy)benzoyloxy]-1,2,3,4-tetrahydroquinolin-2-one]",Kd,H1 receptor,93 µM
same,inhibition at 100 µM,LTD4 receptor,12%
"O=C(O)c1cc2cc(OCc3cccc(OCc4ccc5ccccc5n4)c3)ccc2[nH]c1=O [Example 50, 2-oxo-6-[3-(2-quinolinylmethoxy)benzyloxy]-1,2-dihydroquinoline-3-carboxylic acid]",Kd,LTD4 receptor,1.08 µM
"CCCCCCc1cc(OCc2ccc(OCc3ccc4ccccc4n3)cc2)cc2c1C(C)(C)C(=O)N2 [Example 29, 3,3-Dimethyl-4-(n-hexyl)-6-(4-(2-quinolinylmethoxy)benzyloxy]-2,3-dihydro-1H-indol-2-one]",inhibition at 100 µM,H1 receptor; [1],34%
same,Kd,LTD4 receptor,3.1 µM
"Cc1ccc(OCc2cccc(OCc3ccc4ccccc4n3)c2)c2cc(-c3nn[nH]n3)c(=O)[nH]c12 [Example 47, 8-methyl-5-[3-(2-quinolinylmethoxy)benzyloxy]-3-(5-tetrazolyl)-1,2-dihydroquinolin-2-one]",Kd,LTD4 receptor,0.335 µM
"O=C1CSc2cc(NCc3cccc(OCc4ccc5ccccc5n4)c3)ccc2N1 [Example 94, 7-[3-(2-quinolinylmethoxy)benzylamino]-3,4-dihydro-2H-1,4-benzothiazin-3-one]",inhibition at 10 µM,"H1 receptor; b: 10 μM, read-out: H1 receptor (%), inhibition rate",37%
same,Kd,LTD4 receptor,0.315 µM
"O=C1CSc2cc(OC(=O)c3cccc(OCc4ccc5ccccc5n4)c3)ccc2N1 [Example 58, 7-[3-(2-Quinolinylmethoxy]benzoyloxy]-3,4-dihydro-2H-1,4-benzothiazin-3-one]",inhibition at 100 µM,LTD4 receptor,0%
"CC1(C)C(=O)Nc2c(OC(=O)c3cccc(OCc4ccc5ccccc5n4)c3)cccc21 [Example 61, 3,3-Dimethyl-7-[3-(2-quinolinylmethoxy)benzoyloxyl]2,3-dihydro-1H-indol-2-one]",inhibition at 100 µM,H1 receptor; [1],28%
same,inhibition at 10 µM,LTD4 receptor,27%
O=C1CCCc2cc(OC(=O)c3cccc(OCc4ccc5ccccc5n4)c3)ccc2N1 [Example 57],Kd,H1 receptor,57.9 µM
same,Ki,"LTD4 receptor; read-out: LTD4 receptor, dissociation constant KD (converted)",0.851 µM
"Cc1ccc(OC(=O)c2ccc(OCc3ccc4ccccc4n3)cc2)c2c1NC(=O)CC2 [Example 63, 8-Methyl-5-(4-(2-quinolinylmethoxy)benzoyloxy]-1,2,3,4-tetrahydroquinolin-2-one]",inhibition at 100 µM,H1 receptor; [1],40%
same,Kd,LTD4 receptor,0.0306 µM
"Cc1ccc(OC(=O)c2cccc(OCc3ccc4ccccc4n3)c2)c2c1NC(=O)CC2 [Example 54, 8-Methyl-5-[3-(2-quinolinylmethoxy)benzoyloxy]-1,2,3,4-tetrahydroquinolin-2-one]",inhibition at 100 µM,H1 receptor; [1],41%
same,Kd,LTD4 receptor,0.129 µM
"O=C1CCc2cc(OC(=O)c3ccc(OCc4ccc5ccccc5n4)cc3)ccc2N1 [Example 64, 6-[4-(2-Quinolinylmethoxy)benzoyloxy]-1,2,3,4-tetrahydroquinolin-2-one]",inhibition at 100 µM,H1 receptor; [1],40%
same,inhibition at 100 µM,LTD4 receptor,12%
"O=C1CSc2cc(OCc3cccc(/C=C/c4ccc5ccc(Cl)cc5n4)c3)ccc2N1 [Example 81, trans-7-[3-[2-(7-chloroquinolin-2-yl)ethenyl]benzyloxy]-2H-3,4-dihydro-1,4-benzothiazin-3-one]",Kd,LTD4 receptor,0.013 µM
"O=C1CSc2cc(NC(=O)c3cccc(OCc4ccc5ccccc5n4)c3)ccc2N1 [Example 72, 7-[3-(2-Quinolinylmethoxy)benzoylamino]-3,4-dihydro-2H-1,4-benzothiazin-3-one]",Kd,LTD4 receptor,0.0462 µM
"Cc1ccc(OCc2cccc(OCc3ccc4ccccc4n3)c2)c2cc(C(=O)O)c(=O)[nH]c12 [Example 51, 8-methyl-2-oxo-5-[3-(2-quinolinylmethoxy)benzyloxy]-1,2-dihydroquinoline-3-carboxylic acid]",Kd,LTD4 receptor,11.7 µM
O=C1CSc2cc(NC(=O)c3ccc(OCc4ccc5ccccc5n4)cc3)ccc2N1 [Example 73],inhibition at 10 µM,LTD4 receptor,20%
"Cc1ccc(OCc2ccc(OCc3ccc4ccccc4n3)cc2)c2cc(C#N)c(=O)[nH]c12 [Example 19, 3-Cyano-8-methyl-5-[4-(2-quinolinylmethoxy)benzyloxy]-1,2-dihydroquinolin-2-one]",inhibition at 100 µM,LTD4 receptor,0%
"N#Cc1cc2cc(OCc3cccc(OCc4ccc5ccccc5n4)c3)ccc2[nH]c1=O [Example 1, 3-cyano-6-[3-(2-quinolinylmethoxy)benzyloxy]-1,2-dihydroquinolin-2-one]",Kd,LTD4 receptor,0.118 µM
Cc1ccc(OCc2cccc(OCc3ccc4ccccc4n3)c2)c2cc(Cl)c(=O)[nH]c12 [Example 4],inhibition at 100 µM,LTD4 receptor,0%
"O=C1CSc2cc(OC(=O)c3ccc(OCc4ccc5ccccc5n4)cc3)ccc2N1 [Example 66, 7-[4-(2-Quinolinylmethoxy)benzoyloxy]-3 4-dihydro-2H-1,4-benzothiazin-3-one]",inhibition at 10 µM,LTD4 receptor,28%
"Cc1ccc(OCc2ccc(OCc3ccc4ccccc4n3)cc2)c2cc(-c3nn[nH]n3)c(=O)[nH]c12 [Example 48, 8-methyl-5-[4-(2-quinolinylmethoxy)benzyloxy]-3-(5-tetrazolyl)-1,2-dihydroquinolin-2-one]",Kd,LTD4 receptor,0.304 µM
"Cc1ccc(OC(=O)c2ccc(OCc3ccc4ccccc4n3)cc2)c2cc(C#N)c(=O)[nH]c12 [Example 62, 3-Cyano-8-methyl-5-[4-(2-quinolinylmethoxy)benzoyloxy]-1,2-dihydroquinolin-2-one]","LTD4 receptor (%), inhibition rate",LTD4 receptor; concentration not given,0%
"Cc1ccc(OCc2cccc(OCc3ccc4ccccc4n3)c2)c2ccc(=O)[nH]c12 [Example 2, 8-Methyl-5-[3-(2-quinolinylmethoxy)benzyloxy]-1,2-dihydroquinolin-2-one]",Kd,LTD4 receptor,1.56 µM
"Cc1ccc(OCc2ccc(OCc3ccc4ccccc4n3)cc2)c2cc(C(=O)O)c(=O)[nH]c12 [Example 52, 8-methyl-2-oxo-5-[4-(2-quinolinylmethoxy)benzyloxy]-1,2-dihydroquinoline-3-carboxylic acid]",Kd,LTD4 receptor,0.302 µM
"O=C1CS(=O)(=O)c2cc(OCc3cccc(OCc4ccc5ccccc5n4)c3)ccc2N1 [Example 74, 7-[3-(2-quinolinylmethoxy)benzyloxy]-3,4-dihydro-2H-1,4-benzothiazin-3-one1,1-dioxide]",Kd,LTD4 receptor,235 µM
"Cc1ccc(OCc2cccc(OCc3ccc4ccccc4n3)c2)c2c1NC(=O)C2(C)C [Example 13, 4-[3-(2-Quinolinylmethoxy)benzyloxy]-3,3,7-trimethyl-2,3-dihydro-1H-indol-2-one]",Kd,LTD4 receptor,0.303 µM
"Cc1ccc(OCc2ccc(OCc3ccc4ccccc4n3)cc2)c2cc(Cl)c(=O)[nH]c12 [Example 20, 3-Chloro-8-methyl-5-[4-(2-quinolinylmethoxy)benzyloxy]-1,2-dihydroquinolin-2-one]",inhibition at 100 µM,LTD4 receptor,0%

# From patent US5885987A, “Phenylene derivatives” (Kowa Co., Ltd., priority 1996, dated 1999)
